Test results: publication PMC6963673, “Phenylboronic Acids Probing Molecular Recognition against Class A and Class C β-lactamases” (Antibiotics, 2019)
Where two headings read alike, the source gives them in different places.

Columns and labels:
GES-5 = target: T1, GES-5 (Klebsiella pneumoniae, UniProt Q09HD0); test: In vitro enzyme inhibition assay against GES-5 (nitrocefin reporter substrate); assay type: biochemical
T1 construct: made in house
Text: (§1) Expression and purification of recombinant KPC-2 and GES-5 have been performed as already reported. For recombinant AmpC from Pseudomonas aeruginosa, the optimized full-length synthetic gene was purchased (GeneArt service under Life Technologie) and subcloned into pRham vector to have it in the full-length version. Protein was expressed according to standard protocol: P. aeruginosa AmpC-β-lactamase was obtained from a culture of E. coli BL21(DE3), carrying the plasmid vector pRham-AmpC. 1L of LB-medium with kanamycin 50 μg/mL, at 37 °C, 150 RPM for 24 hrs. Expression was induced by 0.2% w/v Rhamnose. After 5–6 hours the cell broth was centrifuged at 4500 RPM, 4 °C, for 20 min. The sample was loaded on a column packed with 25 mL of Affigel-10 (Biorad) functionalized with 3 MAPB (3-methylaminophenylboronic acid). The column was previously equilibrated with the loading buffer. The protein was eluted (flow rate, 1 mL/min) with 5 column-volumes of elution-buffer (0.5 M boric acid, 0.5 M NaCl, pH 7.0). β-lactamase activity was checked in each elution fraction using 200 μM CENTA [35]. Active fractions were pooled, concentrated by ultrafiltration using a Millipore Ultra-15 (Ultracel-10K; Millipore) and checked by SDS-Page. The protein pool final concentration (1 mg/mL) was assessed using Bradford and UV-Vis assays. Purified AmpC β-lactamase was stored at −80 °C [36].
(§2) The half-maximal inhibitory concentration (IC50) of phenylboronic acid derivatives was determined as follows. Reactions were monitored using a Jasco V-730 spectrophotometer at […] wavelength. Boronic acids were dissolved in dimethyl sulfoxide (DMSO) to a concentration of 10 mM and stored at −20°C. Each compound was tested at concentrations ranging from 1 µM to 200 µM for inhibitory activity vs full-length KPC-2 enzyme, GES-5 and AmpC in 50 mM of PB + 50 mM KCl at pH 7.4 at 25°C with 0.01% v/v Triton X-100, to avoid compound aggregation and promiscuous inhibition in presence of nitrocefin as reported substrate. For tests against KPC-2, reporter substrate nitrocefin was used at 40 μM, (Km 36 μM) while for tests against GES-5 and AmpC reporter substrate nitrocefin was used at 200 μM (Km 208 μM and Km 200 respectively). All the experiments were performed in triplicate. Experimental error never exceeded 5%. The reaction was typically initiated by adding the enzyme to the reaction buffer last. The IC50 values were determined by measuring the rate of hydrolysis of a reporter substrate in the presence of five different inhibitor concentrations at λ 482 nm. The binding affinity ki was estimated, for each compound in the library, from the determined IC50 by Cheng–Prusoff equation as per competitive inhibition (Table 1).

AmpC [1] = target: T2, AmpC (Pseudomonas aeruginosa, UniProt P24735); test: In vitro enzyme inhibition assay against AmpC (nitrocefin reporter substrate); assay type: biochemical; conditions: for drop in potency against AmpC: ortho substitution
T2 construct: subcloned into pRham vector to have it in the full-length version; made in house; host or cells: E. coli BL21(DE3), plasmid pRham-AmpC
T2 sequence (P24735 27-397): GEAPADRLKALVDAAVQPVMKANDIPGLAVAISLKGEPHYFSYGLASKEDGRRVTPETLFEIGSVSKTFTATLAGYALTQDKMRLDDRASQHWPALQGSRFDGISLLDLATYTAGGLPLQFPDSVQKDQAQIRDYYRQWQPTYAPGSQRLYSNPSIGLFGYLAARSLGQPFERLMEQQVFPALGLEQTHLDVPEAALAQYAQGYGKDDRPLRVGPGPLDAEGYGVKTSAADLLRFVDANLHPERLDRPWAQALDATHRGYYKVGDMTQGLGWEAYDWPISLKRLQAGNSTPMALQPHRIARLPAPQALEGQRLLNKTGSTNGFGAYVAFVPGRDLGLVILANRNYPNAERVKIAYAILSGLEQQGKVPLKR
Text: as §1, §2

[2] = test system: Pseudomonas aeruginosa overexpressing AmpC; test: Checkerboard microdilution assay and FICI, ceftazidime plus inhibitor; assay type: cell-based; conditions: for FICI Antibiotic + inhibitor: CAZ + inhibitor, synergy FICI ≤0.5, indifference >0.5 and ≤4, antagonism >4; for nature of interaction with antibiotic: Pseudomonas aeruginosa, in combination with CAZ; for MIC Antibiotic: antibiotic alone
Experimental: To investigate the ability of our phenylboronic acid derivatives 2-5 to reach the periplasmic space, where SBLs are secreted and concentrated in Gram negative bacteria, and synergically protect β-lactam antibiotics hydrolysis by BLs, drug interactions model via the fractional inhibitory concentration index (FICI) was determined against clinical strains overexpressing BLs targets of our studies (Table 2).
(§3) To assess the nature of the in vitro interactions between the compounds and antibiotics against selected clinical strains, the data obtained from the checkerboard assay were used to calculate the fractional inhibitory concentration index (FICI). Briefly, exponential cultures of the bacterial strains in Mueller Hinton broth were inoculated in the wells of microtiter plates containing different concentrations of the cited antibiotics, with and without phenylboronic acids, and incubated at 37 °C for 18 hours. The growth in each well was quantified spectrophotometrically at 595 nm by a microplate reader TECAN Infinite (Tecan Trading AG, Switzerland). The minimal inhibitory concentration (MIC) for each drug and combination of drugs was defined as the concentration of drug that reduced growth by 80% compared to that of organisms grown in the absence of drug. The fractional inhibitory concentration index (FICI) is the mathematical expression of the effect of the combination of antibacterial agents expressed in Equation (1):(1) ΣFIC=FICA+FICB=MICAB/MICA+MICBA/MICB in which MICA and MICB are the MICs of drugs A and B acting alone, and MICAB and MICBA are the MICs of drugs A and B in combination. Synergy is defined when the FICI is ≤0.5, antagonism when the FICI is > 4, and indifference when the FICI is >0.5 and ≤4.

[3] = test system: clinical isolates of Klebsiella pneumoniae expressing KPC-2; test: Checkerboard microdilution assay and FICI, meropenem plus inhibitor; assay type: cell-based; conditions: for FICI Antibiotic + inhibitor: MEM + inhibitor, synergy FICI ≤0.5, indifference >0.5 and ≤4, antagonism >4; for nature of interaction with antibiotic: Klebsiella pneumoniae strains, in combination with MEM
Experimental: as §3

KPC-2 = target: T3, KPC-2 (Klebsiella pneumoniae, UniProt Q9F663); test: In vitro enzyme inhibition assay against KPC-2 (nitrocefin reporter substrate); assay type: biochemical; conditions: for drop in potency against KPC-2: meta substituent
T3 construct: made in house
T3 sequence (Q9F663 25-293 limits assumed): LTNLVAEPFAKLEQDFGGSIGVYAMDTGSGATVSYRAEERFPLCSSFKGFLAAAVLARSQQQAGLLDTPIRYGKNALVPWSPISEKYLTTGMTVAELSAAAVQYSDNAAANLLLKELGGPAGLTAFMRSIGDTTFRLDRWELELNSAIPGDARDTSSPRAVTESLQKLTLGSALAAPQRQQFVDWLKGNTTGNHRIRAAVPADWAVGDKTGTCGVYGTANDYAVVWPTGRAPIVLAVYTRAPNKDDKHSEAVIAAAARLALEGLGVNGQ
Text: as §1, §2

AmpC [4] = target: T2, AmpC; conditions: read-out: AmpC Ki; lead phenylboronic acid; cited from earlier work

T1 sequence (Q09HD0 19-287): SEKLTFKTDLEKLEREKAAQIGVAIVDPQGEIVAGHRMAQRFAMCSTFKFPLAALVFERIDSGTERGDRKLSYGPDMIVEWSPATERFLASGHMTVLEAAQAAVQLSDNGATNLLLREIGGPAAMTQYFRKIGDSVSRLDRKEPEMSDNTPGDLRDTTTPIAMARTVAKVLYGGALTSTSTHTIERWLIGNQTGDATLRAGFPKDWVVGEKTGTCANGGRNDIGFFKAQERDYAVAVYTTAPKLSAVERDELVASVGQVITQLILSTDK

For O=C(O)C=Cc1ccccc1B(O)O [Compound 2, [2-(2-carboxyvinyl)-phenyl]boronic acid], the Ki (GES-5) was 0.11 µM, the “higher activity against GES-5 with respect to KPC-2” value (GES-5; ratio of Ki KPC-2 to Ki GES-5) was 23 fold and the Ki (AmpC [1]) was 41.7 µM. The “drop in potency against AmpC” value (AmpC [1]) was “up to 50 fold”, the “FICI Antibiotic + inhibitor” value ([2]; P aeruginosa 12) was 2 and the “FICI Antibiotic + inhibitor” value ([2]; P aeruginosa 148) was 1. For the same compound, the “FICI Antibiotic + inhibitor” value ([3]; Klebsiella 53A8) was 0.0117, the “FICI Antibiotic + inhibitor” value ([3]; Klebsiella 53A9) was 0.0175 and the “FICI Antibiotic + inhibitor” value ([3]; Klebsiella 99D8) was 0.0156. The “nature of interaction with antibiotic” value [3] was “clear synergistic activity” and the Ki (KPC-2) was 2.43 µM.

With O=C(O)C=Cc1cccc(B(O)O)c1 [Compound 3, [3-(2-carboxyvinyl)phenyl] boronic acid] the Ki (GES-5) was 24.6 µM, the Ki (AmpC [1]) was 1.45 µM and the “FICI Antibiotic + inhibitor” value ([2]; P aeruginosa 12) was 0.5. The “FICI Antibiotic + inhibitor” value ([2]; P aeruginosa 148) was 0.375, the “nature of interaction with antibiotic” value [2] was “synergism can be defined” and the “FICI Antibiotic + inhibitor” value ([3]; Klebsiella 53A8) was 2. For the same compound, the “FICI Antibiotic + inhibitor” value ([3]; Klebsiella 53A9) was 1.5, the “FICI Antibiotic + inhibitor” value ([3]; Klebsiella 99D8) was 2 and the Ki (KPC-2) was 31.2 µM. The “drop in potency against KPC-2” value (KPC-2) was “up to 47 fold”.

In the case of O=C(O)CCc1cccc(B(O)O)c1 [Compound 5], the Ki (GES-5) is reported as 69.4 µM, the Ki (AmpC [1]) is reported as 5.3 µM and the “FICI Antibiotic + inhibitor” value ([2]; P aeruginosa 12) is reported as 0.3750. The “FICI Antibiotic + inhibitor” value ([2]; P aeruginosa 148) was 0.0936, the “nature of interaction with antibiotic” value [2] was “synergism can be defined” and the “FICI Antibiotic + inhibitor” value ([3]; Klebsiella 53A8) was 2. For the same compound, the “FICI Antibiotic + inhibitor” value ([3]; Klebsiella 53A9) was 1.5, the “FICI Antibiotic + inhibitor” value ([3]; Klebsiella 99D8) was 2 and the Ki (KPC-2) was 53 µM. For the same compound, the “drop in potency against KPC-2” value (KPC-2) was “up to 47 fold”.

For CC(C)(O/N=C(\C(=O)N[C@@H]1C(=O)N2C(C(=O)[O-])=C(C[n+]3ccccc3)CS[C@H]12)c1csc(N)n1)C(=O)O [CAZ, ceftazidime, reference compound], the “MIC Antibiotic” value ([2]; P aeruginosa 12) was 32 µg/mL and the “MIC Antibiotic” value ([2]; P aeruginosa 148) was 128 µg/mL.

In the case of OB(O)c1ccccc1 [Compound 1, phenylboronic acid], the Ki (AmpC [4]) is given as 4.85 µM.

In the case of O=C(O)CCc1ccccc1B(O)O [Compound 4], the Ki (GES-5) is reported as 1.83 µM, the Ki (AmpC [1]) is reported as 76.1 µM and the “drop in potency against AmpC” value (AmpC [1]) is reported as “up to 50 fold”. For the same compound, the “FICI Antibiotic + inhibitor” value ([2]; P aeruginosa 12) was 2, the “FICI Antibiotic + inhibitor” value ([2]; P aeruginosa 148) was 1.5 and the “FICI Antibiotic + inhibitor” value ([3]; Klebsiella 53A8) was 0.1875. The “FICI Antibiotic + inhibitor” value ([3]; Klebsiella 53A9) was 0.2500, the “FICI Antibiotic + inhibitor” value ([3]; Klebsiella 99D8) was 0.1250 and the “nature of interaction with antibiotic” value [3] was “clear synergistic activity”. The Ki (KPC-2) was 1.13 µM.
